This note sets out measurements from US6833456B2, “Indolyl-urea derivatives of thienopyridines useful as antiangiogenic agents, and methods for their use” (Agouron Pharmaceuticals, Inc., priority 2002, dated 2004).

Values joined by “and” are separate entries in the source; they are usually repeats but may differ in a detail not shown here. Equal entries are not always repeated.

One data set is described as follows: Mouse PK assay. It is filed as in vivo, B6 female mice. Conditions: for AUC / Cmax: female, B6, mouse, plasma; for Mouse Cmin, po / AUC / Cmax: po; for Cmax: read-out: Mouse Cmax, po ng-h/mL. The procedure: The pharmacokinetics (e.g., absorption and elimination) of drugs in mice were analyzed using the following experiment. Test compounds were formulated as a suspension in a 30:70 (PEG 400: acidified H2O) vehicle. This solution was administered orally (p.o.) and intraperitoneally (i.p.) at 50 mg/kg to two distinct groups (n=4) of B6 female mice. Blood samples were collected via an orbital bleed at time points: 0 hour (pre-dose), 0.5 hr, 1.0 hr, 2.0 hr, and 4.0 hr post dose. Plasma was obtained from each sample by centrifugation at 2500 rpm for 5 min. Test compound was extracted from the plasma by an organic protein precipitation method. For each time bleed, 50 μL of plasma was combined with 1.0 mL of acetonitrile, vortexed for 2 min. and then spun at 4000 rpm for 15 min. to precipitate the protein and extract out the test compound. Next, the acetonitrile supernatant (the extract containing test compound) was poured into new test tubes and evaporated on a hot plate (25° C.) under a steam of N2 gas. To each tube containing the dried test compound extract, 125 μL of mobile phase (60:40, 0.025 M NH4H2PO4+2.5 mL/L TEA:acetonitrile) was added. The test compound was resuspended in the mobile phase by vortexing and more protein was removed by centrifugation at 4000 rpm for 5 min. Each sample was poured into an HPLC vial for test compound analysis on an Hewlett Packard 1100 series HPLC with UV detection. From each sample, 95 μL was injected onto a Phenomenex-Prodigy reverse phase C-18, 150×3.2 mm column and eluted with a 45-50% acetonitrile gradient run over 10 min. Test-compound plasma concentrations (μg/mL) were determined by a comparison to standard curve (peak area vs. conc. μg/mL) using known concentrations of test compound extracted from plasma samples in the manner described above. Along with the standards and unknowns, three groups (n=4) of quality controls (0.25 μg/mL, 1.5 μg/mL, and 7.5 μg/mL) were run to insure the consistency of the analysis. […] The quantitated test samples were plotted for visual display using Kaleidagraph software and their pharmacokinetic parameters were determined using WIN NONLIN software.

For data set [1], the target named is T1, unphosphorylated VEGF-R2Δ50 (FLVK) (Homo sapiens, UniProt P35968, DEL940-989/E990V).
T1 construct: VEGF-R2Δ50 contains residues 806-939 and 990-1171; made in house; host or cells: baculovirus/insect cell system
T1 sequence (P35968 with tags, fused parts or gaps DEL940-989/E990V limits assumed): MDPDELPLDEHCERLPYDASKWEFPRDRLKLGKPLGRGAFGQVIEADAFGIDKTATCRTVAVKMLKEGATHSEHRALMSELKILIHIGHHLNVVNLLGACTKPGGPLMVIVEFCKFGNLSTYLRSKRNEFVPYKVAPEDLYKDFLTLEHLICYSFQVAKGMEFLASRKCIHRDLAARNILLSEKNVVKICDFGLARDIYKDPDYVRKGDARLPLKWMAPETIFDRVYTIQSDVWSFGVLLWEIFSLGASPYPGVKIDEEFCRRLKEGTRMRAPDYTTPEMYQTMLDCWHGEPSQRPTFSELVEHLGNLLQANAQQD
In words: VEGF-R2 coupled spectrophotometric assay, unphosphorylated construct (FLVK). Type of data set: biochemical. The method, boiled down: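 Human VEGF-R2Δ50 cytosolic kinase (residues 806-939/990-1171, E990V), baculovirus-expressed, unphosphorylated form. PK/LDH-coupled NADH oxidation at 340 nm with 20 mM poly(E4Y1), 3 mM ATP, 60 mM MgCl2, 2 mM MnCl2, 200 mM HEPES pH 7.5, 5-40 nM enzyme; Ki fitted by Morrison equation.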

Data set [2] relates to human umbilical vein endothelial cells (HUVEC). Nature of the data set: HUVEC+VEGF proliferation assay. Type of data set: cell-based. As to conditions: VEGF 6 ng/mL, MTT. The procedure:
This assay determines the ability of a test compound to inhibit the growth factor-stimulated proliferation of human umbilical vein endothelial cells (“HUVEC”). HUVEC cells (passage 3-4, Clonetics, Corp.) were thawed into EGM2 culture medium (Clonetics Corp) in T75 flasks. Fresh EGM2 medium was added to the flasks 24 hours later. Four or five days later, cells were exposed to another culture medium (F12K medium supplemented with 10% fetal bovine serum (FBS), 60 μg/mL endothelial cell growth supplement (ECGS), and 0.1 mg/mL heparin). Exponentially-growing HUVEC cells were used in experiments thereafter. Ten to twelve thousand HUVEC cells were plated in 96-well dishes in 100 μl of rich, culture medium (described above). The cells were allowed to attach for 24 hours in this medium. The medium was then removed by aspiration and 105 μl of starvation media (F12K+1% FBS) was added to each well. After 24 hours, 15 μl of test agent dissolved in 1% DMSO in starvation medium or this vehicle alone was added into each treatment well; the final DMSO concentration was 0.1%. One hour later, 30 μl of VEGF (30 ng/mL) in starvation media was added to all wells except those containing untreated controls; the final VEGF concentration was 6 ng/mL. Cellular proliferation was quantified 72 hours later by MTT dye reduction, at which time cells were exposed for 4 hours MTT (Promega Corp.). Dye reduction was stopped by addition of a stop solution (Promega Corp.) and absorbance at 595 nm was determined on a 96-well spectrophotometer plate reader.

Another data set concerns the target T2, PDGFRβ (Homo sapiens, UniProt P09619).
T2 construct: expressed in transfected cells; host or cells: porcine aorta endothelial (PAE) cells
In words: PAE-PDGFRβ phosphorylation in PAE-PDGFRB cells assay. It is filed as cell-based. As to conditions: PAE cells overexpressing human PDGFRβ, PDGF-BB stimulated; read-out: PAE PDGFR autophos IC50. The method, then:
This assay determines the ability of a test compound to inhibit the autophosphorylation of PDGFRβ in porcine aorta endothelial (PAE)-PDGFRβ cells. PAE cells that overexpress human PDGFRβ were used in this assay. The cells were cultured in Ham's F12 media supplemented with 10% fetal bovine serum (FBS) and 400 ug/ml G418. Twenty thousands cells were seeded in each well of a 96-well plate in 50 μL of growth media and allowed to attach for 6 hours at 37° C. Cells were then exposed to the starvation media (Ham's F12 media supplemented with 0.1% FBS) for 16 hours. After the starvation period was over, 10 μL of test agent in 5% DMSO in starvation media were added to the test wells and 10 μL of the vehicle (5% DMSO in starvation media) were added into the control wells. The final DMSO concentration in each well was 0.5%. Plates were incubated at 37° C. for 1 hour and the cells were then stimulated with 1 μg/mL PDGF-BB (R & D System) in the presence of 2 mM Na3VO4 for 8 minutes. The cells were washed once with 1 mm Na3VO4 in HBSS and lysed by adding 50 μL per well of lysis buffer. One hundred μL of dilution buffer were then added to each well and the diluted cell lysate was transferred to a 96-well goat ant-rabbit coated plate (Pierce), which was pre-coated with Rabbit anti Human PDGFRβ antibody (Santa Cruz). The plates were incubated at room temperature for 2 hours and washed seven times with 1% Tween 20 in PBS. HRP-PY20 (Santa Cruz) was diluted and added to the plate for a 30-minute incubation. Plates were then washed again and TMB peroxidase substrate (Kirkegaard & Perry) was added for a 10-minute incubation. One hundred μL of 0.09 N H2SO4 was added into each well of the 96-well plate to stop the reaction. Phosphorylation status was assessed by spectrophotometer reading at 450 nm. IC50 values were calculated by curve fitting using a four-parameter analysis.

T2 sequence (P09619 33-1106): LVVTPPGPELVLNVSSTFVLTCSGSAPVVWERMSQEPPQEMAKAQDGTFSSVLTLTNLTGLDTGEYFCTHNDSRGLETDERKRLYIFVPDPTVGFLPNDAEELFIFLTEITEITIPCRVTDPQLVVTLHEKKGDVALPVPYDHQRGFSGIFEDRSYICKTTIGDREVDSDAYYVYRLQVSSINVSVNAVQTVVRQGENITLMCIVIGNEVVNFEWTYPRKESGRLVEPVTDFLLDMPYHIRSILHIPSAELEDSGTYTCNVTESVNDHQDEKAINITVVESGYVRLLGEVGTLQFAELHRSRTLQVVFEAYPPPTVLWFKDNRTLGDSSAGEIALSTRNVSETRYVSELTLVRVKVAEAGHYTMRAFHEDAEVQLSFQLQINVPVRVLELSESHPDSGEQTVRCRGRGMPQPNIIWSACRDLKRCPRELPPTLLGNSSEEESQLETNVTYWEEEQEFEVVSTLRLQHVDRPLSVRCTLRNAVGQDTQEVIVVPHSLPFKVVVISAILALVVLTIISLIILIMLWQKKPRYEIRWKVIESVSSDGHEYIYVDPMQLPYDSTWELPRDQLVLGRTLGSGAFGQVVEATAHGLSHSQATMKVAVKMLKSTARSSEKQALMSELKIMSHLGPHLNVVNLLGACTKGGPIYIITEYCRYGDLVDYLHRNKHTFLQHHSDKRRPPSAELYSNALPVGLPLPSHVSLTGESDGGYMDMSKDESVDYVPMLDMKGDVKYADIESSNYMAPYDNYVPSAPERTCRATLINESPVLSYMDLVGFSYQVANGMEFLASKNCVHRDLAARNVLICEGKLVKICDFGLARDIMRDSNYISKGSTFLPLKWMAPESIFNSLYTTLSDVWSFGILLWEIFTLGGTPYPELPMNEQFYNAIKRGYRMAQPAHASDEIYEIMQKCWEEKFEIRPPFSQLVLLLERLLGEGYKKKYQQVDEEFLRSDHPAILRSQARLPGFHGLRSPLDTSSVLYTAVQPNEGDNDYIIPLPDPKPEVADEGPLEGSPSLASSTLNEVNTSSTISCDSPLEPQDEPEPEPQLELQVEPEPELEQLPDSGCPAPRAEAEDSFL

One may read the Ki as the dissociation constant of the complex between target and ligand, obtained from inhibition or displacement. A lower Ki goes with tighter binding. As usually defined, the IC50 is the concentration at which inhibition is half-maximal. Turning to `CO[C@H]1CCN(C(=O)c2cc3nccc(Nc4ccc5c(c4)cc(C)n5C(=O)NC4CC4)c3s2)C1` [Example 1f, 5-[2-(3S-Methoxy-pyrrolidine-1-carbonyl)-thieno[3,2-b]pyridin-7-ylamino]-2-methyl-indole-1-carboxylic acid cyclopropylamide], in the data set “Mouse PK assay” (p.o., 50 mg/kg), the “Mouse PK AUC, po ng-h/mL” value came out at 1837 ng·h/mL. The “Mouse Cmin, po” value in the data set “Mouse PK assay” is 4 ng/mL. In data set [1], this compound displayed a Ki of 0.21 nM. The “FLVK (% @ 50 (nM))” value in data set [1] (percent inhibition at 50 nM) was found to be 97%. Also, the IC50 in data set [2] (72 hours) worked out at 0.68 nM; at PDGFRβ, 175 nM.
The AUC is the area under the concentration-time curve, a measure of exposure. Read a low AUC as low exposure. By inhibition is commonly meant the share of the control response that was lost under treatment. Higher therefore signals a response far below the control. `Cc1cc2cc(Nc3ccnc4cc(C(=O)N5CC[C@@H](O)C5)sc34)ccc2n1C(=O)NC1CC1` [Example 1q, 5-[2-(3R-Hydroxy-pyrrolidine-1-carbonyl)-thieno[3,2-b]pyridin-7-ylamino]-2-methyl-indole-1-carboxylic acid cyclopropylamide] registered an area under the curve (AUC) in the data set “Mouse PK assay” (50 mg/kg) of 6 ng·h/mL. Also, the Cmax in “Mouse PK assay” (50 mg/kg, p.o., 50 mg/kg) amounted to 5 ng/mL. For the same compound, in the data set “Mouse PK assay”, the “Mouse Cmin, po” value is 0 ng/mL. Moreover, the Ki in data set [1] worked out at 0.17 nM. The inhibition at 0.05 µM in data set [1] (percent inhibition at 50 nM) turned out to be 99%. Besides, the IC50 in data set [2] (Homo sapiens, HUVEC, 72 h) is 0.481 nM; at PDGFRβ it was over 1000 nM.
Take `CO[C@@H]1CCN(C(=O)c2cc3nccc(Oc4ccc5c(c4)cc(C)n5C(=O)NCC#CC4CC4)c3s2)C1` [Example 4m, 5-[2-(3R-Methoxy-pyrrolidine-1-carbonyl)-thieno[3,2-b]pyridin-7-yloxy]-2-methyl-indole-1-carboxylic acid (3-cyclopropyl-prop-2-ynyl)-amide]: the affinity in data set [1] corresponds to a Ki of 0.271 nM. The inhibition at 0.05 µM in data set [1] (percent inhibition at 50 nM) stood at 99%. For the same compound, the IC50 turned out to be 0.37 nM in data set [2] (Homo sapiens, HUVEC, 72 h) and 3.8 nM at PDGFRβ.
The like results for `CNC(=O)n1c(C)cc2c(F)c(Oc3ccnc4cc(C(=O)N5CCC[C@H]5COC)sc34)ccc21` [Example 5a, 4-Fluoro-5-[2-(2S-methoxymethyl-pyrrolidine-1-carbonyl)-thieno[3,2-b]pyridin-7-yloxy]-2-methyl-indole-1-carboxylic acid methylamide] were, in that order, 0.16 nM, 99%, 0.14 nM and 3.8 nM.
Turning to `C#CCNC(=O)n1c(C)cc2c(F)c(Oc3ccnc4cc(C(=O)N5CCC[C@H]5COC)sc34)ccc21` [Example 5c, 4-Fluoro-5-[2-(2S-methoxymethyl-pyrrolidine-1-carbonyl)-thieno[3,2-b]pyridin-7-yloxy]-2-methyl-indole-1-carboxylic acid prop-2-ynylamide], the AUC in the data set “Mouse PK assay” (50 mg/kg) turned out to be 36200 ng·h/mL. For the same compound, the Cmax in the data set “Mouse PK assay” (50 mg/kg, p.o., 50 mg/kg) amounted to 19700 ng/mL. Moreover, the Ki in data set [1] amounted to 0.605 nM. Besides, at 0.05 µM the inhibition in data set [1] (percent inhibition at 50 nM) was 99%. In addition, the IC50 is 0.115 nM in data set [2] (Homo sapiens, HUVEC, 72 h) and 7.7 nM at PDGFRβ.
On to `C#CCNC(=O)n1c(C)cc2c(F)c(Oc3ccnc4cc(C(=O)N5CC[C@H](OC)C5)sc34)ccc21` [Example 5g, 4-Fluoro-5-[2-(3S-methoxy-pyrrolidine-1-carbonyl)-thieno[3,2-b]pyridin-7-yloxy]-2-methyl-indole-1-carboxylic acid prop-2-ynylamide], for which, in “Mouse PK assay” (50 mg/kg), the AUC worked out at 1170 ng·h/mL. In “Mouse PK assay” (50 mg/kg, p.o., 50 mg/kg), the Cmax stood at 321 ng/mL. In the data set “Mouse PK assay”, the “Mouse Cmin, po” value turned out to be 65 ng/mL. In data set [1], the Ki came out at 0.45 nM. This compound also came in with an inhibition at 0.05 µM in data set [1] (percent inhibition at 50 nM) of 99%. In addition, the IC50 in data set [2] (Homo sapiens, HUVEC, 72 h) worked out at 0.15 nM; on PDGFRβ, 11.2 nM.
On to `C#CCNC(=O)n1c(C)c(Cl)c2c(F)c(Oc3ccnc4cc(C(=O)N5CC[C@H](OC)C5)sc34)ccc21` [Example 6a, 3-Chloro-4-fluoro-5-[2-(3S-methoxy-pyrrolidine-1-carbonyl)-thieno[3,2-b]pyridin-7-yloxy]-2-methyl-indole-1-carboxylic acid prop-2-ynylamide], for which the affinity in data set [1] corresponds to a Ki of 0.428 nM. The inhibition at 0.05 µM in data set [1] (percent inhibition at 50 nM) was 98%. The IC50 in data set [2] (Homo sapiens, HUVEC, 72 h) was 0.427 nM; on PDGFRβ, 28.6 nM.
Compound `Cc1cc2cc(Oc3ccnc4cc(C(=O)N5CC[C@@H](N(C)C)C5)sc34)ccc2n1C(=O)NCCCO` [Example 8i, 5-[(2-{[(3R)-3-(Dimethylamino)pyrrolidin-1-yl]carbonyl}thieno[3,2-b]pyridin-7-yl)oxy]-N-(3-hydroxypropyl)-2-methyl-1H-indole-1-carboxamide] returned a Ki in data set [1] of 0.477 nM. In addition, 0.05 µM produced 99% inhibition in data set [1] (percent inhibition at 50 nM). Also, the IC50 in data set [2] (Homo sapiens, HUVEC, 72 h) is 0.17 nM; on PDGFRβ, 26 nM and 34 nM.
`CNC(=O)n1c(C)cc2cc(Oc3ccnc4cc(C(=O)N5CCC5)sc34)ccc21` [Example 8m, 5-[2-(Azetidine-1-carbonyl)-thieno[3,2-b]pyridin-7-yloxy]-2-methyl-indole-1-carboxylic acid methylamide] returned a Ki in data set [1] of 0.004 nM. Further, the inhibition at 0.05 µM in data set [1] (percent inhibition at 50 nM) amounted to 99%. The IC50 in data set [2] (Homo sapiens, HUVEC, 72 h) is 0.084 nM; at PDGFRβ, 4.5 nM.
The like results for `CO[C@H]1CCN(C(=O)c2cc3nccc(Oc4ccc5c(c4)cc(C)n5C(=O)NCC#N)c3s2)C1` [Example 9f, 5-[2-(3S-Methoxy-pyrrolidine-1-carbonyl)-thieno[3,2-b]pyridin-7-yloxy]-2-methyl-indole-1-carboxylic acid cyanomethyl-amide] were, in that order, 0.667 nM, 84%, 0.68 nM and 13 nM.
As for `CCNC(=O)n1c(C)cc2cc(Oc3ccnc4cc(C(=O)N5CC[C@H](O)C5)sc34)ccc21` [Example 9h, 5-[2-(3S-Hydroxy-pyrrolidine-1-carbonyl)-thieno[3,2-b]pyridin-7-yloxy]-2-methyl-indole-1-carboxylic acid ethylamide], the Ki in data set [1] turned out to be 0.258 nM. In data set [1] (percent inhibition at 50 nM), the inhibition at 0.05 µM worked out at 99%. Besides, the IC50 in data set [2] (Homo sapiens, HUVEC, 72 h) was determined as 0.9 nM; at PDGFRβ, 31 nM.
